Test results taken from patent US20070093536A1, “Target protein of antidiabetic and novel antidiabetic insuful corresponding thereto” (priority 2003, published 2007).
Like-named read-outs stand apart in the source and are kept apart here.

Biological target: T1, FLJ14797-derived protein (γ-tubulin ring complex protein) (Homo sapiens, UniProt Q9UGJ1)
T1 construct: histidine tag (N); FLAG tag (N); made in house; host or cells: cell-free protein synthesis system (PROTEIOS; TOYOBO) using wheat germ extracts
T1 sequence (Q9UGJ1 whole entry, one chain of several): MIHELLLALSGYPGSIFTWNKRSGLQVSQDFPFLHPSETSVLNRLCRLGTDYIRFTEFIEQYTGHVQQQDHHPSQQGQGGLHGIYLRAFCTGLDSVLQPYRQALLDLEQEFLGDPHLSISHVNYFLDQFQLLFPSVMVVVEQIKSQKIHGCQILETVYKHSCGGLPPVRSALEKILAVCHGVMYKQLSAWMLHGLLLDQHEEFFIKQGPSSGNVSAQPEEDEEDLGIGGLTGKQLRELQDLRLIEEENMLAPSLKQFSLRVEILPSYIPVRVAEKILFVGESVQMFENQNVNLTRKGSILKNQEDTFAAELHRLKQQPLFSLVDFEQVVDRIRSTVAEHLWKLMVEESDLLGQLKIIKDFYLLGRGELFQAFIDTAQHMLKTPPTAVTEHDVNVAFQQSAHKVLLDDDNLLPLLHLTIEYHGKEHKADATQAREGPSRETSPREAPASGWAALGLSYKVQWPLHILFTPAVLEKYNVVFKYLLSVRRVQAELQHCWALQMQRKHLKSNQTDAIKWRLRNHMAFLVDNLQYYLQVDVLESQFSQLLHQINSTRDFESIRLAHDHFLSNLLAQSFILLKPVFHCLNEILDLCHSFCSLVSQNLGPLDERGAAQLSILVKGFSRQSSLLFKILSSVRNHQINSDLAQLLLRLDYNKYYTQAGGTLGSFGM
Assay: Biacore S51 surface plasmon resonance analysis of interaction between compound and immobilized FLJ14797-derived protein
Assay type: binding
Procedure: Genes of interest in human full-length cDNA clones were subjected to BP reaction with a PCR cloning vector Gateway pDONR201 using Gateway system available from Invitrogen according to the kit's protocol to give an entry vector. pEU3-NII (TOYOBO) compatible with a cell-free protein synthesis system (PROTEIOS; TOYOBO) using wheat germ extracts was used as a source vector, from which a double-tag destination vector used as the destination vector of the Gateway system was prepared by introducing Gateway cassette with Gateway recombinant sequence into the pEU3-NII vector so that the Gateway system could be utilized, and further modifying the resulting vector by PCR so that peptides having histidine and FLAG tag sequences would be expressed in the N-terminal region of an expressed protein.
The prepared double-tag destination vector and entry vector were used to conduct […] using the Gateway system (Invitrogen) according to the protocol. The resulting product was transformed into Escherichia coli competent cells DH5α to select clones where the expression vector was introduced. Plasmids were prepared from the obtained clones using QIAfilter Midi kit (QIAGEN) according to the kit's protocol. The obtained plasmids were treated with phenol and chloroform according to the PROTEIOS (TOYOBO) protocol and subjected to the inactivation treatment of RNase to give purified expression plasmids.
Recombinant proteins were synthesized by the cell-free protein synthesis system (PROTEIOS; TOYOBO) using wheat germ extracts. mRNA was prepared according to the PROTEIOS protocol from the expression plasmids obtained by the method described in the paragraph 1. A 20-μg aliquot of the obtained mRNA was used to synthesize proteins in 2 wells of a 96-well micro titer plate according to the PROTEIOS protocol. The synthesized proteins were subjected to high-speed centrifugation treatment to remove precipitations. The obtained soluble fractions were purified using ANTI-FLAG M2 Affinity Gel (SIGMA) immobilizing thereon an anti-FLAG tag antibody according to the protocol to give purified proteins.
The surface of a CM5 sensor chip for S51 commercially available from Biacore was converted to NTA using IM EDC, 1.33 M NHS, and 16 mg/ml AB-NTA (pH 9.2) to make an NTA sensor chip for S51. The proteins expressed in the wheat germ system and purified with a FLAG tag were immobilized on this chip. The immobilization was performed by sequentially injecting 0.5 M NiCl2, 0.4 M EDC, […], a ligand (protein) solution, and 1 M ethanolamine (pH 8.5) into the passage system of Biacore S51. A running buffer used for the immobilization was PBS (pH 7.4). The ligand-immobilized sensor chip was used to conduct assay described below. A running buffer used was prepared by adding DMSO at the final concentration of 5% to HBS (10 mM HEPES and 150 mM NaCl, (pH 7.6)), 0.005% P20, and 100 uM mineral ion cocktail (Ca(OAc)2, Zn(OAc)2.2H2O, Cu(OAc)2.H2O, Co(OAc)2.4H2O, Mn(OAc)2.4H2O, Mg(OAc)2.4H2O, and FeCl3.6H2O). Compounds to be measured were prepared by making ½ serial dilutions (9 points) from 62.5 uM to 0.244 uM solutions. Solvents used for the compound solutions were prepared in the same composition as that of the running buffer. A solution containing only the solvents without the compound was prepared for zero-concentration measurement. […]

[1] = Biacore S51, FLJ14797-derived protein, same way as Example 1, Table 1, read-out: KD

With `CCc1ccc(CCOc2ccc(CC3SC(=O)NC3=O)cc2)nc1` (centres unmarked) [pioglitazone, reference compound] the Kd (Biacore S51, FLJ14797-derived protein immobilized on NTA chip, compound 62.5 uM to 0.244 uM, Example 1, read-out: binding dissociation constant KD) was 9.04 µM and the “interaction with FLJ14797-derived protein (specificity of binding)” value (Biacore S51, binding dose-dependent and saturated at high doses) was “specific”.
`O=C1NC(=O)C(Cc2ccc(OCCOC3CCCC3)cc2)S1` (centres unmarked) [Compound A-3] was tested, and the Kd [1] was 21.6 µM.
Molecule `O=C1NC(=O)C(Cc2ccc(OCCOC3CCCCC3)cc2)S1` (centres unmarked) [Compound A-2] has a Kd [1] of 13.8 µM.
Work on `CC1(OCCOc2ccc(CC3SC(=O)NC3=O)cc2)CCCCC1` (centres unmarked) [Compound A-1, 5-{4-[2-(1-methyl-cyclohexyloxy)-ethoxy]-benzyl}-thiazolidine-2,4-dione] yielded a Kd [1] of 8.43 µM.
